Data: paper PMC12136037, “Type II kinase inhibitors that target Parkinson’s disease–associated LRRK2” (Science Advances, 2025)

Legend:
Experiment in all cases: DSF 100 kinase selectivity screen;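 note: compound tested at 20 µM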
Type in all cases: binding
[1] = molecular target: T1, ~100 representative kinases (Homo sapiens, UniProt P11309); settings: protein PIM1; average of three replicates
T1 construct: Recombinant protein kinase domains with a concentration of 2 μM
Method in brief: (§1)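 Each kinase domain, at 2 μM, is mixed with 20 μM test compound and SYPRO Orange in Hepes (20 mM, pH 7.5) with 500 mM NaCl. Temperature is then raised at 3°C/min and fluorescence-monitored unfolding yields the melting temperature change, ΔTm in degrees Celsius.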

[2] = molecular target: T2, ~100 representative kinases (Homo sapiens, UniProt P12931); settings: Protein SRC; DSF; average of three replicates
T2 construct: Recombinant protein kinase domains with a concentration of 2 μM
T2 sequence (P12931 whole entry, the tested form may be a part): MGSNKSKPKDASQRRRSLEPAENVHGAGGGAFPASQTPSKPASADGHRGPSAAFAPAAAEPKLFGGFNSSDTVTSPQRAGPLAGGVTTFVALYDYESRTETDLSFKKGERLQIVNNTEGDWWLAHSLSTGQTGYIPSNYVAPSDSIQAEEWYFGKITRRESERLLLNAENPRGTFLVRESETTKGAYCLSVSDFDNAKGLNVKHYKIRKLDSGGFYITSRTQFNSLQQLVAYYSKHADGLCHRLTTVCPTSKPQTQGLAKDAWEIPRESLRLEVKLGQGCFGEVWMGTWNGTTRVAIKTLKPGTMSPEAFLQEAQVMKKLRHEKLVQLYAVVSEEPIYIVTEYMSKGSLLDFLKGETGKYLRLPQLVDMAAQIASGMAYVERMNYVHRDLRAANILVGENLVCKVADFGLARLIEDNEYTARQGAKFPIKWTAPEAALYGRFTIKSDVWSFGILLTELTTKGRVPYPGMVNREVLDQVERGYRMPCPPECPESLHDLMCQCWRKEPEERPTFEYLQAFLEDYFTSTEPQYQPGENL
Method in brief: as §1

[3] = molecular target: T3, ~100 representative kinases (Homo sapiens, UniProt P21802); settings: protein FGFR2; average of three replicates
T3 construct: Recombinant protein kinase domains with a concentration of 2 μM
T3 sequence (P21802 22-821): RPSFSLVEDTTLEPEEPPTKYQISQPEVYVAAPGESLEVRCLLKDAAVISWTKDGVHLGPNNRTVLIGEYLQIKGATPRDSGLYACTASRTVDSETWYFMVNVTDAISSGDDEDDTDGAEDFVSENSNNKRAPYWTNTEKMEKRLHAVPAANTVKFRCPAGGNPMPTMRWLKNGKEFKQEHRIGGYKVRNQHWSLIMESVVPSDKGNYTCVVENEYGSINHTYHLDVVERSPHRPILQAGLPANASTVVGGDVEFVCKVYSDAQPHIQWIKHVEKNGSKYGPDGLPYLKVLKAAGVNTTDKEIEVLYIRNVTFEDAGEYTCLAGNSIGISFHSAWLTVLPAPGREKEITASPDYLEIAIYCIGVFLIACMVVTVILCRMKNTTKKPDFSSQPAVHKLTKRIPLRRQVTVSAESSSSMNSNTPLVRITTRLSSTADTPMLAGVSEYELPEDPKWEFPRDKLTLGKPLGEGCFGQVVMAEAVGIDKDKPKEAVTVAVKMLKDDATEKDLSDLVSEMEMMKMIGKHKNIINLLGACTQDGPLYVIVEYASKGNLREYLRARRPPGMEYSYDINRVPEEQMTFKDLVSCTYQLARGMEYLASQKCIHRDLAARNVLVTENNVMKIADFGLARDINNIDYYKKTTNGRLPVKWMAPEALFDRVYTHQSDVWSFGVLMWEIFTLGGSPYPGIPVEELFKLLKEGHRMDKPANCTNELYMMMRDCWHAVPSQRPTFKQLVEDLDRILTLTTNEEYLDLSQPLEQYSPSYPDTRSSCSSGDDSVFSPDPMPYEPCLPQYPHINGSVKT
Method in brief: as §1

[4] = molecular target: T4, ~100 representative kinases (Homo sapiens, UniProt P29317); settings: Protein EPHA2; average of three replicates
T4 construct: Recombinant protein kinase domains with a concentration of 2 μM
T4 sequence (P29317 24-976): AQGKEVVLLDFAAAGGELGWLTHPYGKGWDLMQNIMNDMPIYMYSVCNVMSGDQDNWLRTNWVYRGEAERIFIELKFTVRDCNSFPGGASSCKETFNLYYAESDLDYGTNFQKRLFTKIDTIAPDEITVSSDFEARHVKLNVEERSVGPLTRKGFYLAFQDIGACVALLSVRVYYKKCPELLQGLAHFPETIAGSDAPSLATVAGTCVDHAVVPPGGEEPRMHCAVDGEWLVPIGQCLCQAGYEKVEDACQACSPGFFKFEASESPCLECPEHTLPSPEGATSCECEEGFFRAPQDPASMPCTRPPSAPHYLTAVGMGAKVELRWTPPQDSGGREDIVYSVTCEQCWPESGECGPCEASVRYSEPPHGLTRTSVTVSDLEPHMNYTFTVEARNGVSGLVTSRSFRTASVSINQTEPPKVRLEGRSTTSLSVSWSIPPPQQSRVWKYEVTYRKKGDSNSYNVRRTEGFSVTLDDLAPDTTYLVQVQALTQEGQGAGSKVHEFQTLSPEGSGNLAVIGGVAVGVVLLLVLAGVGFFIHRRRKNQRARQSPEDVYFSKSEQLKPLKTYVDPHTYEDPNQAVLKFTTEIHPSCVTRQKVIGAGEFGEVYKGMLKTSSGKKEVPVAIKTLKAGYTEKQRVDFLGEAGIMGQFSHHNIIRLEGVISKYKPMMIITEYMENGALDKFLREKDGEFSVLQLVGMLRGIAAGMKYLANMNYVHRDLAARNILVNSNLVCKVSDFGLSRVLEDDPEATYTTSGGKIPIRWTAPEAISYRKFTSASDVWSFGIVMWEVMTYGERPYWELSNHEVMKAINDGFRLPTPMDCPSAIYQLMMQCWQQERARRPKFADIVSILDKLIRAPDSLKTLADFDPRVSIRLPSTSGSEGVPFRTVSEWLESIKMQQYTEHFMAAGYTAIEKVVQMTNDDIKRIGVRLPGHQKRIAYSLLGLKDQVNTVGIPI
Method in brief: as §1

[5] = molecular target: T5, ~100 representative kinases (Homo sapiens, UniProt P45983); settings: protein MAPK8; average of three replicates
T5 construct: Recombinant protein kinase domains with a concentration of 2 μM
T5 sequence (P45983 whole entry, the tested form may be a part): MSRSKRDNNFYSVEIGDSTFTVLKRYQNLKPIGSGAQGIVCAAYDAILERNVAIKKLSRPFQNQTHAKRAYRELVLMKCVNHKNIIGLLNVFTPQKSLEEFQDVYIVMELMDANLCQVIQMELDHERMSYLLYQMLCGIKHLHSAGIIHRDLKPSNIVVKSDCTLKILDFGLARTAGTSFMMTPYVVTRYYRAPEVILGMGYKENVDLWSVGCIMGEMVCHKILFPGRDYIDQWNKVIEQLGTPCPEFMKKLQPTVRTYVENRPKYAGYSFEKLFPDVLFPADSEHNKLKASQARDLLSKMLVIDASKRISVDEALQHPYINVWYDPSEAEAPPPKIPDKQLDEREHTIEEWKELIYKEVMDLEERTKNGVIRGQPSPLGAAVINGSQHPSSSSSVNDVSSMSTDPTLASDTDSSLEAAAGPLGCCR
Method in brief: as §1

[6] = molecular target: T6, ~100 representative kinases (Homo sapiens, UniProt Q13188); settings: Protein STK3; DSF; average of three replicates
T6 construct: Recombinant protein kinase domains with a concentration of 2 μM
T6 sequence (Q13188 1-491): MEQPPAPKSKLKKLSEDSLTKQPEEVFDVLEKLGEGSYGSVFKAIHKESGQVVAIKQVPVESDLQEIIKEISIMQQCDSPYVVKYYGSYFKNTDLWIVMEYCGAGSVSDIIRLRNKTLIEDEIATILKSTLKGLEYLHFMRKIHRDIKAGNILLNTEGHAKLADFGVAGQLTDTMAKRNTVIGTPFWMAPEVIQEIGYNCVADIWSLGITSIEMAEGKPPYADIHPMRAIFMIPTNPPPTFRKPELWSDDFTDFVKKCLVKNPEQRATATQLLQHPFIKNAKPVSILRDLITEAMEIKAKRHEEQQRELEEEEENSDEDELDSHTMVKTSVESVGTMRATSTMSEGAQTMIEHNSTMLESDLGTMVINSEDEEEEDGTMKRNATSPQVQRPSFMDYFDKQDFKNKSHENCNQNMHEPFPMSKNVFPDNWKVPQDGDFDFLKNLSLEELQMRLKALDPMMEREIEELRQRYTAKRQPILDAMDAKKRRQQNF
Method in brief: as §1

[7] = molecular target: T7, ~100 representative kinases (Homo sapiens, UniProt Q13627); settings: Protein DYRK1A; average of three replicates
T7 construct: Recombinant protein kinase domains with a concentration of 2 μM
Method in brief: as §1

[8] = molecular target: T8, ~100 representative kinases (Homo sapiens, UniProt Q8IU85); settings: Protein CAMK1D; average of three replicates
T8 construct: Recombinant protein kinase domains with a concentration of 2 μM
T8 sequence (Q8IU85 whole entry, the tested form may be a part): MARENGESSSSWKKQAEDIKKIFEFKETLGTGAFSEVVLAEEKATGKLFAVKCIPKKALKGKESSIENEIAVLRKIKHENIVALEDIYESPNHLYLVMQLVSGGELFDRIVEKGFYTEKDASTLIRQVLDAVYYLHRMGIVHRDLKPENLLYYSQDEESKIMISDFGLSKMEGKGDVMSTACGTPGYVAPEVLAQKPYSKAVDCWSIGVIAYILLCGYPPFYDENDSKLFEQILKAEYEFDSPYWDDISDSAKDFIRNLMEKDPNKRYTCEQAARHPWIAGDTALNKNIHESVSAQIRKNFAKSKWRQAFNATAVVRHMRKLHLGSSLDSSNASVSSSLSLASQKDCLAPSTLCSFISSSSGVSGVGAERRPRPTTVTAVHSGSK
Method in brief: as §1

[9] = molecular target: T9, ~100 representative kinases (Homo sapiens, UniProt Q96L34); settings: protein MARK4; average of three replicates
T9 construct: Recombinant protein kinase domains with a concentration of 2 μM
T9 sequence (Q96L34 1-752): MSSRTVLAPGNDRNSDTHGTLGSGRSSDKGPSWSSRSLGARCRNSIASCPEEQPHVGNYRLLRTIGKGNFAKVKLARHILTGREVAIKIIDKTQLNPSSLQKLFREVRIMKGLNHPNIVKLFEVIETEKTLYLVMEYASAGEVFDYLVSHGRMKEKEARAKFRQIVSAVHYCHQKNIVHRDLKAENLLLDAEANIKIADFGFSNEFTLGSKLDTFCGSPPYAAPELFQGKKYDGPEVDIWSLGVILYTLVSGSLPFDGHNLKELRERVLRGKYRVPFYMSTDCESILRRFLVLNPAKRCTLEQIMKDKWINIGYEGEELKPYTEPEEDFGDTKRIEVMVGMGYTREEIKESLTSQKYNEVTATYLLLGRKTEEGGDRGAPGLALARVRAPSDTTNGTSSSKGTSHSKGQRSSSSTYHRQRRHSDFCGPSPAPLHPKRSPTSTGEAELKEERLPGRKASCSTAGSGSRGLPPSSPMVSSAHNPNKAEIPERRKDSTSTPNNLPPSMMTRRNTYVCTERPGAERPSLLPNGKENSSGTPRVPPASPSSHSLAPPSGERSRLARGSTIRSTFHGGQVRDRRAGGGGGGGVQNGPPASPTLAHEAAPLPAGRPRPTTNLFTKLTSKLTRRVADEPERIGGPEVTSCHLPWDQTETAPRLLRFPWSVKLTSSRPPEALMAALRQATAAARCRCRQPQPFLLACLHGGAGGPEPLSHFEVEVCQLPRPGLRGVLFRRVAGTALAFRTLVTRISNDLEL
Method in brief: as §1

[10] = molecular target: T10, ~100 representative kinases (Homo sapiens, UniProt Q9UKI8); settings: Protein TLK1; DSF; average of three replicates
T10 construct: Recombinant protein kinase domains with a concentration of 2 μM
T10 sequence (Q9UKI8 1-766): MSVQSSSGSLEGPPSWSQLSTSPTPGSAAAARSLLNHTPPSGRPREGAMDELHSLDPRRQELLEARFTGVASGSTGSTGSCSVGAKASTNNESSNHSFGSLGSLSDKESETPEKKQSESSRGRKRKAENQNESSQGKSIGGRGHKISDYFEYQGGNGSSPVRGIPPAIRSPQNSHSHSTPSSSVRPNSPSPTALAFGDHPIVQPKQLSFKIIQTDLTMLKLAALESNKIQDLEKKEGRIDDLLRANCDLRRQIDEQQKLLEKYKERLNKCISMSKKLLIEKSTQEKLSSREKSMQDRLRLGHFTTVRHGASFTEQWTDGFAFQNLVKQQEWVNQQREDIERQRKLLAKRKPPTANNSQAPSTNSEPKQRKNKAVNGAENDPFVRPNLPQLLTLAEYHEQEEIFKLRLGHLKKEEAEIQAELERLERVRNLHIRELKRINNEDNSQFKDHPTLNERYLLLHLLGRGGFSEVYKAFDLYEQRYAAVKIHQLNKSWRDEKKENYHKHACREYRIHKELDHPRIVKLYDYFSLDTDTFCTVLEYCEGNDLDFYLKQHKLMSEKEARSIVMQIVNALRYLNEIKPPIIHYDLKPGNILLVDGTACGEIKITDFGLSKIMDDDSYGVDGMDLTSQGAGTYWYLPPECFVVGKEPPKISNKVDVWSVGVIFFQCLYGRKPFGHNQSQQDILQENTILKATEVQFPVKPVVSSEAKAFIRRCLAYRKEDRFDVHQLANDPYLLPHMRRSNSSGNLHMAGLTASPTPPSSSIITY
Method in brief: as §1

[11] = molecular target: T11, ~100 representative kinases (Homo sapiens, UniProt Q9UPE1); settings: Protein SRPK3; DSF; average of three replicates
T11 construct: Recombinant protein kinase domains with a concentration of 2 μM
T11 sequence (Q9UPE1 whole entry, the tested form may be a part): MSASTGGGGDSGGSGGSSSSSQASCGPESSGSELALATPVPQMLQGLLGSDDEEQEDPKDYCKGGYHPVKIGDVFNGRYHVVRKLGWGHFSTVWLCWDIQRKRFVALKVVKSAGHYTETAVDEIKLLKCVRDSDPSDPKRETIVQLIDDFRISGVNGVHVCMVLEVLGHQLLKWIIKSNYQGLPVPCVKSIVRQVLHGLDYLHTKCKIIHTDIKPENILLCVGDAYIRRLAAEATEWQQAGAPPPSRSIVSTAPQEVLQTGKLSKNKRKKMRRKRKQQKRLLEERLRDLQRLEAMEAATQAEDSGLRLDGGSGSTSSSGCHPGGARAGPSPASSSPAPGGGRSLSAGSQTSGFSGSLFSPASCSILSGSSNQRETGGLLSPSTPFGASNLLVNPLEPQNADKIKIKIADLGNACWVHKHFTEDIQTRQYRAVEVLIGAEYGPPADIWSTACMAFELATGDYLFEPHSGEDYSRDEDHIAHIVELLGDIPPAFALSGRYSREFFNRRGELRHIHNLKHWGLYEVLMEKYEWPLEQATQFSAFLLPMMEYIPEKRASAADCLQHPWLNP
Method in brief: as §1

T1 sequence (P11309 whole entry, the tested form may be a part): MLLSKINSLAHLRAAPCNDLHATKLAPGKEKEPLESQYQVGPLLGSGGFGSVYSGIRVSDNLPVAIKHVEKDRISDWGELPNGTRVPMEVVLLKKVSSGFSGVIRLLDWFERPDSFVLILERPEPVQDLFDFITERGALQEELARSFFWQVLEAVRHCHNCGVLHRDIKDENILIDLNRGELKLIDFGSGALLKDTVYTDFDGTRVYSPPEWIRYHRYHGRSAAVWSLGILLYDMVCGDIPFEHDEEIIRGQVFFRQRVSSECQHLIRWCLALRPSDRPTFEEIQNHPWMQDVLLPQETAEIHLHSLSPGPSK

| dTm [1] | dTm [2] | dTm [3] | dTm [4] | dTm [5] | dTm [6] | dTm [7] | dTm [8] | dTm [9] | dTm [10] | dTm [11] | Compound |
| --- | --- | --- | --- | --- | --- | --- | --- | --- | --- | --- | --- |
| 0.61 K | 0.45 K | 2.08 K | 4.60 K | 1.59 K | 6.69 K | 1.28 K | -1.25 K | 2.83 K | -0.64 K | 4.09 K | O=C(Nc1cccc(-c2c[nH]c3ncnc(N4CCOCC4)c23)c1)C1(C(=O)Nc2ccc(F)cc2F)CC1 [Compound 23] |
| 5.41 K | 1.18 K | 4.02 K | 4.93 K | 3.23 K | 8.55 K | 6.34 K | 1.04 K | 4.93 K | 0.17 K | 7.93 K | O=C(Nc1cccc(-c2c[nH]c3ncnc(N4CCOCC4)c23)c1)C1(C(=O)Nc2ccc(F)c(Cl)c2)CC1 [Compound 18] |
| 3.60 K | 1.01 K | 2.62 K | 4.47 K | 2.52 K | 7.68 K | 4.77 K | -0.44 K | 3.95 K | -0.35 K | 5.74 K | O=C(Nc1cccc(-c2c[nH]c3ncnc(N4CCOCC4)c23)c1)C1(C(=O)Nc2ccc(F)c(F)c2)CC1 [Compound 17] |
| 3.98 K | -0.25 K | 4.16 K | 4.87 K | 3.53 K | 7.71 K | 1.71 K | 3.06 K | 5.43 K | 2.03 K | 6.39 K | O=C(Nc1cccc(-c2c[nH]c3ncnc(N4CCOCC4)c23)c1)C1(C(=O)Nc2ccc(F)c(Br)c2)CC1 [Compound 19] |
| 5.73 K | 1.91 K | 4.17 K | 6.64 K | 3.09 K | 10.06 K | 7.39 K | 0.0569 K | 6.75 K | -0.17 K | 10.86 K | Cc1cc(NC(=O)C2(C(=O)Nc3cccc(-c4c[nH]c5ncnc(N6CCOCC6)c45)c3)CC2)ccc1F [Compound 20] |

Continued, compound first:

| Compound | dTm [1] | dTm [2] | dTm [3] | dTm [4] | dTm [5] | dTm [6] | dTm [7] | dTm [8] | dTm [9] | dTm [10] | dTm [11] |
| --- | --- | --- | --- | --- | --- | --- | --- | --- | --- | --- | --- |
| COc1cc(S(C)(=O)=O)ccc1Nc1nc(N(C)C)c2c(Cl)c[nH]c2n1 [Compound 37] | -0.49 K | 0.09 K | -0.14 K | -0.56 K | 3.54 K | -0.72 K | 2.45 K | 0.49 K | 0.42 K | -1.44 K | 0.46 K |
| O=C(Nc1cccc(-c2c[nH]c3ncnc(N4CCOCC4)c23)c1)C1(C(=O)Nc2cccc3c2CCC3)CC1 [Compound 11] | 1.06 K | 2.66 K | 2.75 K | 1.56 K | 2.36 K | 4.65 K | 0.32 K | 1.59 K | 0.00 K | 1.55 K | 3.94 K |
| O=C(Nc1ccccc1)C1(C(=O)Nc2cccc(-c3c[nH]c4ncnc(N5CCOCC5)c34)c2)CC1 [Compound 12] | 3.25 K | 1.12 K | 2.56 K | 5.20 K | 1.81 K | 6.83 K | 4.34 K | -1.41 K | 3.45 K | 0.18 K | 4.78 K |
| COc1cc(C(=O)N2CCOCC2)c(F)cc1Nc1nc(N(C)C)c2c(Cl)c[nH]c2n1 [Compound 36] | -0.51 K | 0.60 K | -0.36 K | -0.10 K | 5.54 K | -0.64 K | 3.71 K | 1.95 K | -0.63 K | -1.95 K | 1.84 K |
| CC(C)(C)c1cc(NC(=O)Nc2cccc(-c3c[nH]c4ncnc(N5CCOCC5)c34)c2)n(-c2ccc3ncccc3c2)n1 [Compound 28] | 7.97 K | 7.10 K | 10.62 K | 14.41 K | 3.58 K | 10.40 K | 7.41 K | 2.13 K | 4.38 K | 0.24 K | 9.26 K |
